The nature of series [1]: Rotating disk electrode linear sweep voltammetry (Levich and Tafel analysis). It is filed as physicochemical. The text has this: Further, the log (i0) can also be represented as FACOk0, where k0 is the electron transfer rate constant.
Series [2] in a line: Three-electrode half-cell cyclic voltammetry.
Description: Cyclic voltammetry experiments were performed using a Biologic SP150 potentiostat controlled by Biologic EC-Lab software.
The next series is described as follows: physchem. The text has this:
FIG. 1A illustrates the natural source of the indigo dye. The most natural product from which indigo is obtained includes indican (genus indigofera plants) and isatan (woad plants or isatis tinctoria) in tropical and moderate climate zones, respectively.^[19] Irrespective of their source, the chemistry of the dye extraction involves soaking the leaves of the plants in water to facilitate the fermentation process, during which the indican readily undergoes enzymatic hydrolysis and releases indoxyl that converts to indigo by oxidation upon exposure to air. […] On the contrary, a high concentration of reactants in solution is the key to minimize the storage tank size while obtaining high specific volumetric energy density. Therefore, the design of an appropriate electrolyte for AORFB starts from identifying redox-active materials followed by optimization of the structure to achieve the maximum solubility to maximize the energy density. […] In IC-H, the substituted protons are attached to the strongly electronegative oxygen atoms and capable of forming strong hydrogen bondings. Hydrogen bondings are usually stronger than the Van Der Wall forces and dipole interactions.

Values after ≈ are worked out from the molar mass of the structure shown. Values joined by “and” are separate entries in the source; they are usually repeats but may differ in a detail not shown here. Equal values may be shown once.

Take `O=C1/C(=C2\Nc3ccc(S(=O)(=O)O)cc3C2=O)Nc2ccc(S(=O)(=O)O)cc21` [IC-H, 5,5′-indigodisulfonic acid]: the “electron transfer (reaction) rate constant” value in series [1] (1 mM in 0.1 M HClO4, fitted Tafel plot) came to 0.000282 cm/s. The diffusion coefficient in series [1] (1 mM in 0.1 M HClO4, slope of Levich plot) was 2.232×10^−5 cm^2 s^−1 and 2.23×10^−5 cm^2 s^−1. In series [1] (LSV data at 2700 rpm, Tafel plot), the electron transfer rate constant k0 worked out at 0.000282 cm/s. Further, the “chemical stability on CV cycling” value in series [2] (10,000 cycles at 40 mV s^−1) is “negligible decay”. The compound also returned a redox peak separation in series [2] (scan rates 5 mV s^−1 to 200 mV s^−1) of 40 mV. In the series “physchem”, this compound yielded an aqueous solubility of 760 mM (≈ 321 mg/mL) and an improvement in solubility of 22 folds.

In the case of `CC1(C)CCCC(C)(C)N1[O]` [TEMPO, 2,2,6,6-tetramethylpiperidine-1-oxyl, reference compound], the “redox potential (redox peaks)” value in series [2] (acidic medium (0.1 M HClO4 where stated)) was “around 0.75 V vs. Ag/AgCl”.

The aqueous solubility is how much of the substance goes into solution per volume. A high value points to much dissolved substance.

The values are drawn from patent publication US20220238900A1, “All Natural Redox Flow Battery Utilizing Indigo Carmine And Derivatives Thereof” (Northeastern University, priority 2019, published 2022).
